Measurements reported in US20250332212A1, “METHOD FOR TREATING OR PREVENTING ALOPECIA” (Suzhou Mingren Pharmaceutical Biotechnology Co., Ltd., priority 2024, published 2025).
Square brackets hold non-standard residues; d marks the D form. Ends that are not written are not given here. pS = N[C@@H](COP(=O)(O)O)C(=O)O

Columns and labels:
AR = experiment: qPCR of AR mRNA in skin tissue of model mice; format: in vivo, mouse; settings: model II, P>0.05
Protocol: 6.1) Sample preparation: 15-20 mg of mouse skin tissue was placed in a 1.5 mL centrifuge tube, and 600 μL of pre-cooled lysate was quickly added, and homogenized with an electric homogenizer. The homogenate obtained was blown gently 10 times, left at room temperature for 3-5 min, then centrifuged at 14,000×g for 5 min, and the supernatant was transferred to a new centrifuge tube with a pipette gun of suitable volume.
6.10) Reverse transcribe the RNA into cDNA according to the instructions of the reverse transcription kit, and then carry out subsequent experiments or store at −20° C. for later use.
(§1) 7.1) Dilute the specific gene amplification primers to 10 µM in ddH2O, prepare the qPCR reaction system according to the instructions in the kit and add them sequentially into a 384-well plate.
(§2) 7.3) Relative mRNA expression levels of genes were calculated by the […] relative quantification method using GAPDH as an internal reference.

[1] = system: SP1, Wnt10a, Wnt10b and β-catenin; experiment: Immunoblotting of SP1 and downstream molecules in skin, Animal model III; format: in vivo, mouse; settings: 1% JP1
Protocol: (§3) 4.1) Protein extraction: 70 mg of skin tissue was placed in a 1.5 mL centrifuge tube, and 500 μL of tissue lysate RIPA containing protease inhibitor and phosphatase inhibitor was added. The tissue was placed on an ice box, pulverized by a tissue grinder, and then ultrasonically crushed to obtain a tissue suspension, which was then placed in a rotary windmill at 4° C. to be lysed for 2 h. The centrifuge was set at 12,000×g, 4° C., centrifuged for 15 min, and the supernatant was collected as the total protein.
(§4) 5.1) Heating of protein samples: the total protein content of each tissue was 50 μg; calculate the volume of a corresponding protein sample, make up the volume with saline to 16 μL, then add 4 μL of 5×SDS sampling buffer, heat at 100° C. for 5 min, and then cool at room temperature and store at −20° C.
(§5) 5.7) Primary antibody incubation: the cut protein bands were placed into the corresponding primary antibody and incubated at 4° C. on a shaker overnight, washed with TBST 3 times for 10 min/time.

p-MEK = experiment: Immunoblotting of p-MEK in skin tissue; format: in vivo, mouse; settings: P<0.05, dose-effect relationship
Protocol: as §3, §4, §5

SP1 = SP1 expression in skin tissue (qPCR, immunoblotting, immunofluorescence); format: in vivo, mouse
Protocol: as §3, §4, §1, §2
(§6) 9.5) Primary antibody incubation: the tissue was circled by the histochemical pen, about 50 μL of primary antibody was added dropwise to the tissue, and incubated in a wet box overnight at 4° C., washed 3 times with PBS.

β-catenin = β-catenin expression in skin tissue (qPCR, immunoblotting, immunofluorescence); format: in vivo, mouse
Protocol: as §3, §4, §5, §1, §2, §6

[2] = JP1 stability experiment in skin-coating solvent (HPLC); format: physicochemical; settings: 14 days
Protocol: This example further explored the stability of JP1 in the skin-coating solvent. In this example, the solvent group and JP1 group were designed, and the content and molecular weight of JP1 in the skin-coating solvent were detected using high performance liquid chromatography on days 1, 3, 7, and 14, respectively, after the solution was formulated for evaluation. The prepared solutions were placed in a refrigerator at 4° C. The details of the experiments are shown in “II. JP1 Stability Experiments” of “Experimental Methods” below.
The stability of JP1 dissolved in a skin-coating solvent was tested at different time points. JP1 was prepared with the skin-coating solvent, and a solvent control group and a 10 mM JP1 group were set up. The prepared solution was stored in a refrigerator at 4° C. The five time points of 0, 1, 3, 7 and 14 days were detected by high performance liquid chromatography (HPLC), and the standard curve was plotted with the peak area as the vertical coordinate and the concentration of JP1 as the horizontal coordinate.

p-c-Raf = experiment: Immunoblotting of p-c-Raf in skin tissue; format: in vivo, mouse
Protocol: as §3, §4, §5

Wnt10a = Wnt10a expression in skin tissue (qPCR, Western blotting); format: in vivo, mouse
Protocol: (§7) To illustrate the regulation of JP1 on the upstream Wnt ligand of β-catenin, this example intersected classical signaling pathway-related Wnt ligands and AGA-related Wnt ligands, and screened out the related Wnt ligands, including Wnt1, Wnt3a, Wnt7b, Wnt10a, and Wnt10b. In this example, qPCR was used to detect the mRNA expression of these Wnt molecules in the skin tissue of the mouse model in Example 6.
as §3
(§8) 5.1) Heating of protein samples: the total protein content of each tissue was 50 μg; calculate the volume of a corresponding protein sample, make up the volume with saline to 16 μL, then add 4 μL of 5×SDS sampling buffer, heat at 100° C. for 5 min, and then cool at room temperature and store at −20° C. […]
as §2

Wnt1, Wnt3a, Wnt7b = experiment: qPCR of the other Wnt molecules in skin tissue; format: in vivo, mouse; settings: P>0.05
Protocol: as §7, §1, §2

Wnt10b = Wnt10b expression in skin tissue (qPCR, Western blotting); format: in vivo, mouse
Protocol: as §7, §3, §8, §2

[3] = Western blotting, dose-dependent

For “FPGSDRF-RGD (FPG[pS]DRFRGD) [JP1, amino acid S is phosphorylated; JWA peptide]”, the “AR mRNA level, difference between groups” value (AR) was “no statistically significant difference”, the “expression levels of key molecules (SP1, Wnt10a, Wnt10b, β-catenin), day 4” value [1] was “did not change significantly” and the “protein expression levels of four molecules (SP1, Wnt10a, Wnt10b, β-catenin), day 8” value [1] was “increased significantly”. The p-MEK expression level (p-MEK) was “elevated”, the SP1 immunofluorescence (SP1) was “consistent with the protein immunoblotting results” and the “SP1 protein expression level” value (SP1; immunoblotting) was “elevated trend”. The “SP1 mRNA expression” value (SP1; qPCR) was “high expression”, the “SP1 mRNA expression level, 1% JP1 group vs 0.1% JP1 group” value (SP1; qPCR, P<0.05) was “significantly higher than that in the 0.1% JP1 group” and the β-catenin immunohistofluorescence staining (β-catenin) was “trend consistent with the results of protein immunoblotting experiments”. For the same substance, the β-catenin protein expression (β-catenin; protein immunoblotting, dose-effect relationship for JP1) was “increased”, the “β-catenin mRNA expression vs model group” value (β-catenin; qPCR) was “increased” and the “JP1 degradation in skin-coating solvent” value ([2]; 10 mM JP1, 4° C.) was “no JP1 degradation was detected”. For the same substance, the “peak area of the substance produced by degradation” value ([2]; skin-coating solvent, 4° C.) was “less than 0.5 mAU”, the “percentage of the main peak area” value ([2]; skin-coating solvent, 4° C.) was ~100% and the p-c-Raf protein level (p-c-Raf) was “not significantly altered”. For the same substance, the Wnt10a protein expression (Wnt10a; [3]) was “significantly up-regulated”, the “Wnt10a mRNA expression” value (Wnt10a; qPCR, P<0.05) was “elevated with a dose-effect relationship” and the “mRNA levels of the other Wnt molecules among the groups” value (Wnt1, Wnt3a, Wnt7b) was “not statistically significant”. For the same substance, the Wnt10b protein expression (Wnt10b; [3]) was “significantly up-regulated” and the “Wnt10b mRNA expression” value (Wnt10b; qPCR, P<0.05) was “elevated with a dose-effect relationship”.
